# Measurements as given in patent US9598387B2 (Southern Research Institute, priority 2012, dated 2017).
# Columns and labels:
# [1] = target: T1, human D3 dopamine receptor (Homo sapiens (Human), UniProt P35462); experiment: Radioligand binding (125I-IABN competition), D3; conditions: for Ki: 125I-IABN competition, HEK cell membranes expressing human D3; for D2/D3 (D3 selectivity ratio, D2 Ki/D3 Ki): calculated D2 Ki/D3 Ki
# Protocol: (§1) The affinities of the target compounds were determined using radioligand binding experiments. […] Competition curves were modeled for a single site. Data from competition dose-response curves were analyzed using Tablecurve program (Jandel). IC50 values were converted to equilibrium dissociation constants (Ki values) using the Cheng and Prusoff correction.
# [2] = target: human D2-long dopamine receptor (Homo sapiens (Human), UniProt P14416); experiment: Radioligand binding (125I-IABN competition), D2; conditions: HEK cell membranes expressing human D2-long
# Protocol: as §1
# [3] = target: T1, human D3 dopamine receptor; experiment: Whole Cell Adenylyl Cyclase Assay, D3; assay type: cell-based; conditions: inhibition of forskolin (100 μM) stimulated cAMP, normalized to quinpirole; compound conc ≥10× Ki (per compound); mean ± S.E.M.
# Protocol: (§2) The intrinsic activity of the compounds was evaluated by determining their ability to inhibit forskolin-dependent (100 μM) stimulation of adenylyl cyclase activity using a whole cell assay. A whole cell-cyclic AMP accumulation assay was performed with stably transfected HEK cells expressing human D2 or D3 dopamine receptors. This assay is an adaptation of an earlier published method (Su et al., Cyclic Nucleotide Res. 1976, 2, 257-285). Details regarding this method have been published (Chu, W. et al. Bioorg. Med. Chem. 2005, 13, 77-87; Taylor, M. et al. Synapse 2010, 64, 251-266). Confluent (60-80%) HEK cells transfected with recombinant D2-like dopamine receptors were grown in DMEM/10% fetal calf serum containing geneticin in […] flasks. The endogenous ATP pool is radioactively labeled by preincubating the cells in serum-free DMEM/25 mM Hepes medium containing 2 μCi/mL of [2,8-^3H]-adenine (20-Ci/mmol) in a 5% CO2 incubator at 37° C. for 75 min. The radioactive medium was removed by aspiration. Serum-free DMEM (5.6 mL) containing 25 mM HEPES, pH 7.4, and 0.1 mM of the phosphodiesterase inhibitor isobutylmethylxanthine was added to the flask. A […] aliquot of cells was removed and added to 50 μL of forskolin (100 μM) and 50 μL of test drug or quinpirole in DMEM-HEPES. The cells were incubated for 20 min at 37° C. (vortexing every 5 min). The reaction was terminated by the addition of 0.5 mL of 10% trichloroacetic acid (w/v) containing 1.0 mM unlabeled cyclic AMP as a recovery standard. Both the [^3H]-cyclic AMP and the [^3H]-ATP fractions were collected following separation using columns of Dowex AG-50W-X4 and alumina. The final yield of [^3H]-cyclic AMP is corrected for column recovery of unlabeled cyclic AMP determined spectrophotometrically (OD259). The results are reported as percent conversion of [^3H]-ATP into [^3H]-cyclic AMP. The values for the percent inhibition are reported as the actual percent of inhibition of the ^3H-cAMP accumulation relative to the assay performed in the absence of a test compound, minus basal activity. […] The percent maximum response is the value for the inhibition normalized to the value for the full agonist quinpirole.
# D2LR = D2LR (Homo sapiens (Human), UniProt P14416); experiment: β-Arrestin Recruitment Assay, CHO-K1 DRD2L; assay type: cell-based; conditions: antagonist vs EC80 6 nM Pergolide, CHO-K1 DRD2L cells; read-out: D2 IC50
# Protocol: (§3) Antagonist potency of the compounds against agonist induced recruitment of β-arrestin by D3R and D2LR was measured using DiscoverRx PathHunter eXpress kits. […] After incubation at 37° C. for 90 min, the DiscoveRx detection reagent was added, the plates were incubated at room temperature for 60 min and the luminescence was measured on a Synergy 4 plate reader (BioTek). The data were plotted and the agonist EC80 values were calculated using GraphPad Prism software. For antagonist activity, the cells were plated as described above and treated with multiple concentrations (starting from 500 nM, half log dilution, 10 dose points) of the test compounds in Plating Reagent with 0.1% DMSO.
# D3R [4] = target: T2, D3R (Homo sapiens (Human), UniProt P35462); experiment: β-Arrestin Recruitment Assay, U2OS DRD3; assay type: cell-based; conditions: for IC50: antagonist vs EC80 8 nM PD128907, U2OS DRD3 cells, read-out: D3 IC50; for D2 IC50/D3 IC50: ratio of β-arrestin IC50 values
# Protocol: as §3
# [5] = target: human D2 dopamine receptors (Homo sapiens (Human), UniProt P14416); experiment: Whole Cell Adenylyl Cyclase Assay, D2; assay type: cell-based; conditions: inhibition of forskolin (100 μM) stimulated cAMP, normalized to quinpirole; compound conc ≥10× Ki (per compound); mean ± S.E.M.
# Protocol: as §2
# human D2 receptors = human D2 receptors (Homo sapiens (Human), UniProt P14416); experiment: D2 Mitogenesis Functional Assay (3H-thymidine uptake, CHOp-D2 cells); assay type: cell-based
# Protocol: (§4) These assays are based on ^3H-thymidine uptake by cells that are proliferating.
# CHO cells expressing human D2 receptors (CHOp-D2 cells) were maintained in alpha-MEM with 10% FCS, 0.05% pen-strep, and 200 μg/mL of G418. […] The cells were incubated at 37° C. in alpha-MEM with 10% FCS. After 48-72 hours, the cells were rinsed twice with serum-free alpha-MEM and incubated for 24 hours at 37° C. Serial dilutions of test compounds were made by the Biomek robotics system in serum-free alpha-MEM. In the functional assay for agonism, the medium was removed and replaced with 100 μL of test compound in serum-free alpha-MEM. In the antagonist assay, the serial dilution of the putative antagonist test compound was added in 90 μL (1.1× of final concentration) and 300 nM quinpirole (30 nM final) was added in […]. After another 24-hour incubation at 37° C., 0.25 μCi of [^3H]thymidine in alpha-MEM supplemented with 10% FCS was added to each well and the plates were further incubated for 2 hours at 37° C. The cells were trypsinized by addition of 10× trypsin solution (1% trypsin in calcium-magnesium-free phosphate-buffered saline) and the plates were filtered and counted as usual. Quinpirole was run as an internal control and dopamine was included for comparative purposes. Butaclamol was run as the standard antagonist.
# D3R [6] = target: T2, D3R; experiment: D3 Mitogenesis Functional Assay (3H-thymidine uptake, CHOp-D3 cells); assay type: cell-based; conditions: for Emax at 10 µM: % maximum stimulation vs quinpirole (100%), read-out: D3 Agonist Emax; for D3 Antagonist Imax: inhibition of quinpirole stimulation of mitogenesis; for IC50: read-out: D3 Antagonist IC50
# Protocol: as §4
# CHO cells expressing human D3 receptors (CHOp-D3 cells) were maintained in alpha-MEM with 10% fetal bovine serum (FBS, Atlas Biologicals), 0.05% pen-strep, and 200 μg/ml of G418. […] The cells are incubated at 37° C. in alpha-MEM with 10% FBS. After 48-72 hours, the cells are rinsed twice with serum-free alpha-MEM and incubated for 24 hours at 37° C. Serial dilutions of test compounds were made by the Biomek robotics system in serum-free alpha-MEM. In the functional assay for agonism, the medium is removed and replaced with 100 μL of test compound in serum-free alpha-MEM. In the antagonist assay, the serial dilution of the putative antagonist test compound was added in 90 μL (1.1× of final concentration) and 300 nM quinpirole (30 nM final) was added in 10 uL. After another 16-hour incubation at 37° C., 0.25 μCi of [^3H]thymidine in alpha-MEM supplemented with 10% FBS was added to each well and the plates were further incubated for 2 hours at 37° C. The cells were trypsinized by addition of 10× trypsin solution (1% trypsin in calcium-magnesium-free phosphate-buffered saline) and the plates were filtered and counted as usual. Quinpirole was run as an internal control and dopamine was included for comparative purposes. Butaclamol was run as the standard antagonist. Data were analyzed using GraphPAD Prism and agonist potency was expressed as EC50 values or % stimulation and antagonist potency was expressed as IC50 values. In these assays, based on the % maximum stimulation as compared to the standard agonist quinpirole (100%) the compounds were classified into following categories: ≧90% full agonist; 70-90% partial to full agonist; <70% partial agonist; 0-20% potential antagonist.
# Sequence of D2LR (P14416 whole entry): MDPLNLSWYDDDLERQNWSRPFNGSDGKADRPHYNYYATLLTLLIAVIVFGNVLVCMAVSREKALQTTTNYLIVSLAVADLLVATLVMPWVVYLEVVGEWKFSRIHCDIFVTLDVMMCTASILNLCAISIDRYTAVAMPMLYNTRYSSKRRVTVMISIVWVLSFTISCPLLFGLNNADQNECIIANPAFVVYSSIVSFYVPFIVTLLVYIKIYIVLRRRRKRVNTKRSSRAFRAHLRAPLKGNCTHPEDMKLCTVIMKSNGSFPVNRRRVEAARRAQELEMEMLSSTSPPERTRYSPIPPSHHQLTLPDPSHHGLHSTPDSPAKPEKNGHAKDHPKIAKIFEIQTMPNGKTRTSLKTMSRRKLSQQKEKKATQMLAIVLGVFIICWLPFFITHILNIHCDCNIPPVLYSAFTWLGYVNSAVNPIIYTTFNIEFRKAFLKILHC
# Sequence of human D2 receptors (P14416 whole entry): as above
# Sequence of human D2-long dopamine receptor (P14416 whole entry): as above
# Sequence of human D2 dopamine receptors (P14416 whole entry): as above
# T1 sequence (P35462 whole entry): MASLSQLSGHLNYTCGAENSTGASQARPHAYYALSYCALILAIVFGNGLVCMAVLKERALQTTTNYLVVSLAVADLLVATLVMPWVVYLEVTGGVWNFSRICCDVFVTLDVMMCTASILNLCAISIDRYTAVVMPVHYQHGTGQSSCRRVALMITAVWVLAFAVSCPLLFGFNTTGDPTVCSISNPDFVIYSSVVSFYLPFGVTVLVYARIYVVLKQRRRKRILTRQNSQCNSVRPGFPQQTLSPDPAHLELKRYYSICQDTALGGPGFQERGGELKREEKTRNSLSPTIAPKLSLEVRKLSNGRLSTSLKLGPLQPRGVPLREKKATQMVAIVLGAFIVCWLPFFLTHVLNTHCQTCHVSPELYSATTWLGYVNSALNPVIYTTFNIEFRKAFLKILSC
# T2 sequence (P35462 whole entry): as above
Compound,Ki [1],"D2/D3 (D3 selectivity ratio, D2 Ki/D3 Ki) [1]",Ki [2],D3 Cyclase % Inhibition Normalized [3],IC50 (D2LR),IC50 (D3R [4]),D2 IC50/D3 IC50 (D3R [4]),D2 Cyclase % Inhibition Normalized [5],"Emax at 10 µM (human D2 receptors; at 10 μM, % maximum stimulation vs quinpirole (100%), read-out: D2 Agonist Emax)","D2 Antagonist Imax (human D2 receptors; at 10 μM, inhibition of quinpirole stimulation of mitogenesis)",IC50 (human D2 receptors; read-out: D2 Antagonist IC50),Emax at 10 µM (D3R [6]),D3 Antagonist Imax (D3R [6]),IC50 (D3R [6]),"EC50 (D3R [6]; CHOp-D3 cells, stimulation of mitogenesis, read-out: D3 Agonist EC50)"
"O=C(NCCCCN1CCN(c2ccnc3ccccc23)CC1)C1CCC(c2ccccc2)CC1 (centres unmarked) [Compound 104, 4-Phenyl-N-(4-(4-(quinolin-4-yl)piperazin-1-yl)butyl)cyclohexanecarboxamide]",35.3 ± 4.8 nM,146,5160 ± 822 nM,53.4 ± 13.0%,> 500 nM,33.7 ± 14.3 nM,>15,–,–,–,–,–,–,–,–
CC(C)(C)c1nc(N2CCN(CCCCNC(=O)N3CCc4c([nH]c5ccccc45)C3)CC2)cc(C(F)(F)F)n1 [Compound 55],3 ± 0.2 nM,182,536 ± 118 nM,61.7 ± 6.4%,> 500 nM,26.2 ± 10.2 nM,>19,6.3 ± 4.3%,–,–,–,–,–,–,–
"CN(C)Cc1cccc2nc(C(=O)NCCCCN3CCN(c4cc(C(F)(F)F)nc(C(C)(C)C)n4)CC3)cn12 [Compound 121, N-(4-(4-(2-(tert-Butyl)-6-(trifluoromethyl)pyrimidin-4-yl)piperazin-1-yl)butyl)-5-((dimethylamino)methyl)imidazo[1,2-a]pyridine-2-carboxamide]",27.3 ± 3.4 nM,11,298 nM,–,281 ± 43 nM,28.8 ± 2.7 nM,10,–,–,–,–,–,–,–,–
"O=C(NCCCCN1CCN(c2cccc(Cl)c2Cl)CC1)N1CCN(c2ccccc2)CC1 [Compound 3, N-(4-(4-(2,3-Dichlorophenyl)piperazin-1-yl)butyl)-4-phenylpiperazine-1-carboxamide]",0.39 ± 0.1 nM,54,21 ± 2.4 nM,66.4 ± 16.4%,–,–,–,61.0 ± 4.5%,< 20%,91.0% at 10 μM,14.6 ± 5.5 nM,< 20%,93.1%,3.43 ± 0.29 nM,–
"COc1ccc2c(c1)CN(C(=O)NCCCCN1CCN(c3cc(C(F)(F)F)nc(C(C)(C)C)n3)CC1)C2 [Compound 40, N-(4-(4-(2-(tert-Butyl)-6-(trifluoromethyl)pyrimidin-4-yl)piperazin-1-yl)butyl)-5-methoxyisoindoline-2-carboxamide]",2.3 ± 0.5 nM,432,994 ± 106 nM,30.0 ± 7.9%,157 ± 11 nM,0.8 ± 0.24 nM,196,−39.1 ± 12.5%,–,–,–,–,–,–,–

# Continued, values first:
Ki [1],"D2/D3 (D3 selectivity ratio, D2 Ki/D3 Ki) [1]",Ki [2],D3 Cyclase % Inhibition Normalized [3],IC50 (D2LR),IC50 (D3R [4]),D2 IC50/D3 IC50 (D3R [4]),D2 Cyclase % Inhibition Normalized [5],"Emax at 10 µM (human D2 receptors; at 10 μM, % maximum stimulation vs quinpirole (100%), read-out: D2 Agonist Emax)","D2 Antagonist Imax (human D2 receptors; at 10 μM, inhibition of quinpirole stimulation of mitogenesis)",IC50 (human D2 receptors; read-out: D2 Antagonist IC50),Emax at 10 µM (D3R [6]),D3 Antagonist Imax (D3R [6]),IC50 (D3R [6]),"EC50 (D3R [6]; CHOp-D3 cells, stimulation of mitogenesis, read-out: D3 Agonist EC50)",Compound
2.7 ± 0.1 nM,136,366 ± 18 nM,73.4 ± 11.0%,376 ± 31 nM,3.86 ± 2.51 nM,97,54.5 ± 4.5%,–,–,–,–,–,–,–,"Cc1cc(N2CCN(CCCCNC(=O)N3CCN(c4ccccc4)CC3)CC2)nc(C(C)(C)C)n1 [Compound 5, N-(4-(4-(2-(tert-Butyl)-6-methylpyrimidin-4-yl)piperazin-1-yl)butyl)-4-phenylpiperazine-1-carboxamide]"
11 ± 2.4 nM,147,1620 ± 402 nM,64.3 ± 10.4%,> 500 nM,28.1 ± 4.9 nM,>18,–,–,–,–,< 5%,81.2%,2000 ± 480 nM,> 10000 nM,"CC(C)(C)c1nc(N2CCN(CCCCNC(=O)N3CCC(c4ccccc4)CC3)CC2)cc(C(F)(F)F)n1 [Compound 48, N-(4-(4-(2-(tert-Butyl)-6-(trifluoromethyl)pyrimidin-4-yl)piperazin-1-yl)butyl)-4-phenylpiperidine-1-carboxamide]"
